Measured values published in patent US7737185B2 (Repros Therapeutics Inc., priority 2001, dated 2010).

Key:
total serum testosterone = test: Serum testosterone in male baboons given Clomid, Enclomid or Zuclomid; format: in vivo; conditions: for Effect on total serum testosterone: 1.5 mg/kg for 12 days, male baboons
Excerpt: (§1) The samples analyzed were sera taken on the day of first treatment before being given test article (day 0), after 12 days of treatment (day 12) and 7 days after the last treatment (end or wash-out).

serum cholesterol = test: Serum cholesterol in male baboons; format: in vivo; conditions: 1.5 mg/kg for 12 days
Excerpt: as §1

FSH, LH, testosterone = conditions: cited from earlier work
serum LH, FSH = test: Placebo controlled challenge study Androxal vs Androgel: serum LH and FSH; format: in vivo, human
Description: (§2) Androgel® (Solvay Pharmaceuticals, Inc.) consists of a cream that administers exogenous testosterone in a transdermal matrix.
(§3) The study enrolled 62 hypogonadal men with testosterone levels less than 300 ng/dl (normal 298-1034 ng/dl) that were randomized into 6 different arms, three doses of Androxal™ (12.5 mg, 25 mg, and 50 mg), placebo, and both high and low doses of Androgel®. Half of the men in each of the Androxal™ and placebo arms were randomized into cohorts that underwent in-clinic sessions on days 1 and 14 to determine pharmacokinetic parameters for Androxal™ as well as cyclical changes in testosterone. The placebo and Androxal™ doses were administered in a double blind fashion. The Androgel® cream was administered in an open label fashion. Half of the Androgel® patients underwent in-clinic sessions similar to the other patients in the study. Following the two week drug exposure patients were followed for an additional seven to ten days to determine the status of their testosterone levels.

triglycerides = test: Placebo controlled challenge study Androxal vs Androgel: triglycerides; format: in vivo, human; conditions: after two weeks of therapy, non-dose dependent; placebo 5.9% reduction
Description: as §2, §3

[1] = Placebo controlled challenge study Androxal vs Androgel: side effects; format: in vivo, human; conditions: hypogonadal men, two week exposure
Description: as §2, §3

serum LH, FSH, PRL = test: Serum LH, FSH and prolactin in male baboons; format: in vivo; conditions: during the study
Excerpt: as §1

total testosterone = test: Placebo controlled challenge study Androxal vs Androgel: total testosterone; format: in vivo, human; conditions: for Mean increase in testosterone from baseline: hypogonadal men, two weeks
Description: as §2, §3

[2] = following a single dose; cited from earlier work

## CCN(CC)CCOc1ccc(C(=C(Cl)c2ccccc2)c2ccccc2)cc1 [Clomid, clomiphene]
Total serum testosterone; day 6 and later, compared to animals receiving Enclomid
  Variability of total testosterone levels (coefficients of variation): more variable total testosterone levels
Serum cholesterol
  Change in serum cholesterol levels: slight increase
FSH, LH, testosterone; both young and old men
  FSH, LH after treatment: increases in FSH, LH
FSH, LH, testosterone; men, young men showing significant increases
  Free and total testosterone after treatment: increases in free and total testosterone

## CCN(CC)CCOc1ccc(/C(=C(\Cl)c2ccccc2)c2ccccc2)cc1 [Enclomid, trans-clomiphene]
Total serum testosterone
  Effect on total serum testosterone: significant increases in total serum testosterone
Total serum testosterone; between day 12 and day 18 (washout)
  Change in total serum testosterone after cessation of treatment: significant drop
Serum LH, FSH; 7-10 days after cessation of daily treatment
  Serum LH in the follow-up period: remained high
Serum LH, FSH; after cessation of treatment
  Serum FSH in the follow-up period: remains high
Serum LH, FSH; hypogonadal male subjects (FIG. 5)
  Serum levels of LH during treatment: statistically significant increase
Serum LH, FSH; hypogonadal male subjects (FIG. 6)
  Serum levels of FSH during treatment: statistically significant increase
triglycerides
  Reduction in triglycerides (average decrease): 19.1%
Serum cholesterol
  Decrease in serum cholesterol levels: 8%
[1]
  Side effects different than placebo: no side effects noted
Serum LH, FSH, PRL
  Serum prolactin (PRL): decrease in serum prolactin
12-day treatment
  Platelet count: lowering of the platelet count
Male baboons
  Eosinophil counts: raising the counts
  Lymphocytes, count and per cent: increase
  Red blood cell population: substantive effects
Very strong after the 7-day washout period
  Per cent of granulocytes in the blood: strong effect
Total testosterone; 50 mg dose, after 15 days
  Coefficient of variation (CV) of mean total testosterone: 29%
  Mean total testosterone: 589 ± 172 ng/dL
Total testosterone; high dose (50 mg) oral
  Mean increase in testosterone from baseline: 294 ng/dL
Total testosterone; low dose (12.5 mg) oral
  Mean increase in testosterone from baseline: 169 ng/dL
Total testosterone; mid dose (25 mg) oral
  Mean increase in testosterone from baseline: 247 ng/dL

## CCN(CC)CCOc1ccc(/C(=C(/Cl)c2ccccc2)c2ccccc2)cc1 [Zuclomid, cis-clomiphene, reference compound]
Total serum testosterone
  Effect on total serum testosterone: did not raise total serum testosterone to any extent
[2]
  Residual blood levels: in excess of one month
Serum cholesterol
  Increase in serum cholesterol levels: 22%
Male baboons
  Hematocrit: demonstrated a statistical difference
  Red blood cell population: substantive effects
